Where “and” joins values, the source holds several entries; their conditions need not be identical. Identical values can stand only once. Like-named read-outs stand apart in the source and are kept apart here.
Key:
[1] = system: T. b. brucei Lister 427WT; test: Drug susceptibility test (resazurin), Lister 427WT; type: cell-based, Trypanosoma brucei brucei; conditions: Trypanosoma brucei
How it was run: (§1)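 Trypanosomes (2 × 10^4 cells/well) exposed 48 h at 37 °C/5% CO2 in HMI-9/FBS to 23-step doubling dilutions from 100 µM, then resazurin added for a further 24 h. Fluorescence fitted to a variable-slope sigmoid curve.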

[2] = system: ISMR1: isometamidium-resistant T. brucei cell line; test: microbe, parasite or virus in culture; type: cell-based, Trypanosoma brucei brucei; conditions: for EC50: Trypanosoma brucei
How it was run: as §1

[3] = system: TbAT1-KO: T. brucei cell line lacking the TbAT1(P2) transporter gene; test: microbe, parasite or virus in culture; type: cell-based, Trypanosoma brucei brucei
How it was run: as §1

P2 transporter (TbAT1) = P2 transporter (TbAT1) (Trypanosoma brucei brucei, UniProt Q9Y0I0); test: cell-based; conditions: for Ki: P2 transporter Ki
Protocol: Non-specific association of radiolabel with the cell pellet was determined using an identical incubation in the presence of saturating (1 mM) unlabelled adenosine.

[4] = system: T. brucei BSF s427 wildtype cells; test: Growth assays of T. brucei (trypanocidal/trypanostatic effect); type: cell-based, Trypanosoma brucei
How it was run: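 Cells were seeded at 1×10^5 cells/mL in HMI-9 with 10% FBS and 2 μM 2'-deoxycoformycin, then counted manually at intervals up to 48 h. For wash-out, cultures at 10^5 cells/mL (37 °C/5% CO2) were split at 8 h and 48 h and resuspended with or without compound, with counts every 24 h (detection limit 10^4 cells/mL).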

Chain of P2 transporter (TbAT1) (Q9Y0I0 entry or part of it): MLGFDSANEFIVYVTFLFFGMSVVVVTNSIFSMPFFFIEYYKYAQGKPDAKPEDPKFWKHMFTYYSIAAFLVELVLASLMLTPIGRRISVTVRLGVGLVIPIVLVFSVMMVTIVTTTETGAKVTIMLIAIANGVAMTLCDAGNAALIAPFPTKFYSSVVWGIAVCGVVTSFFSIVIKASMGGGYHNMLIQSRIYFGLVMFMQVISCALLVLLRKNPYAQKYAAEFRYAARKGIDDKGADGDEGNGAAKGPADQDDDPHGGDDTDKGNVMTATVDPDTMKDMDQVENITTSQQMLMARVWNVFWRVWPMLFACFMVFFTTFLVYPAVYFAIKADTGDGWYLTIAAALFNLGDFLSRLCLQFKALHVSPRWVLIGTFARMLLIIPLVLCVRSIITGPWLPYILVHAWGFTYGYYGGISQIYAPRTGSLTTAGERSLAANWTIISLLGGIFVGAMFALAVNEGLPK

`Nc1ncnc2c1c(Br)cn2[C@@H]1O[C@H](CO)C[C@H]1O` [Compound 10, 3’-deoxy-7-Br-tubercidin] gave an EC50 ([1]; mean and SEM, n = 3, read-out: Lister 427 EC50) of 1.8 ± 0.3 nM, an EC50 ([1]; source data, read-out: s427 EC50, AVG) of 1.76 nM and an EC50 ([2]; mean and SEM, n = 3, read-out: ISMR1 EC50) of 1.1 ± 0.2 nM. For the same compound, the EC50 ([2]; source data, read-out: ISMR1 EC50, AVG) was 1.11 nM, the “RF (ISMR1)” value ([2]; resistance factor vs Lister 427WT) was 0.63 and the EC50 ([3]; Trypanosoma brucei, read-out: TbAT1-KO EC50, AVG, source data) was 2.12 nM. For the same compound, the EC50 ([3]; Trypanosoma brucei, read-out: TbAT1-KO EC50, mean and SEM, n = 3) was 2.1 ± 0.25 nM, the EC50 ([3]; read-out: TbAT1-KO EC50, single determinations, source data) was 1.94 nM and the “RF (TbAT1-KO)” value ([3]; resistance factor: ratio of EC50 of resistant and Lister 427WT) was 1.2. The “P2 transporter ΔG^0” value (P2 transporter (TbAT1); Gibbs free energy from −RT ln(Ki)) was -8.58 kcal/mol, the IC50 (P2 transporter (TbAT1); P2 transporter IC50, single experiments, [L] 0.033 or 0.1 per experiment) was 620 nM and 790 nM and 250 nM and the Ki (P2 transporter (TbAT1); AVG, source data) was 500 nM. The Ki (P2 transporter (TbAT1); inhibition of [3H]adenosine uptake, mean ± SEM, n = 3) was 502 ± 140 nM, the Ki (P2 transporter (TbAT1); single experiments, Cheng–Prusoff from IC50) was 520 nM and 740 nM and 240 nM and the “P2 transporter δ(ΔG^0)” value (P2 transporter (TbAT1); in comparison to adenosine) was -0.024 kcal/mol. For the same compound, the “AVG of cells/mL” value ([4]; 2xEC50, 2 h, experiment 1) was 128750 cells/mL, the Cells/mL ([4]; 2xEC50, 2 h, experiment 1) was 137500 Cells/mL and 120000 Cells/mL and the Counts ([4]; 2xEC50, 2 h, experiment 1) was 55 and 48. For the same compound, the “AVG of cells/mL” value ([4]; 2xEC50, 2 h, experiment 2) was 145000 cells/mL, the Cells/mL ([4]; 2xEC50, 2 h, experiment 2) was 147500 Cells/mL and 142500 Cells/mL and the Counts ([4]; 2xEC50, 2 h, experiment 2) was 59 and 57. For the same compound, the “AVG of cells/mL” value ([4]; 2xEC50, 4 h, experiment 1) was 143750 cells/mL, the Cells/mL ([4]; 2xEC50, 4 h, experiment 1) was 162500 Cells/mL and 125000 Cells/mL and the Counts ([4]; 2xEC50, 4 h, experiment 1) was 50 and 65. The “AVG of cells/mL” value ([4]; 2xEC50, 4 h, experiment 2) was 148750 cells/mL, the Cells/mL ([4]; 2xEC50, 4 h, experiment 2) was 160000 Cells/mL and 137500 Cells/mL and the Counts ([4]; 2xEC50, 4 h, experiment 2) was 55 and 64. The “AVG of cells/mL” value ([4]; 2xEC50, 6 h, experiment 1) was 172500 cells/mL, the Cells/mL ([4]; 2xEC50, 6 h, experiment 1) was 177500 Cells/mL and 167500 Cells/mL and the Counts ([4]; 2xEC50, 6 h, experiment 1) was 71 and 67. The “AVG of cells/mL” value ([4]; 2xEC50, 6 h, experiment 2) was 203750 cells/mL, the Cells/mL ([4]; 2xEC50, 6 h, experiment 2) was 192500 Cells/mL and 215000 Cells/mL and the Counts ([4]; 2xEC50, 6 h, experiment 2) was 77 and 86. For the same compound, the “AVG of cells/mL” value ([4]; 2xEC50, 8 h, experiment 1) was 183750 cells/mL, the Cells/mL ([4]; 2xEC50, 8 h, experiment 1) was 177500 Cells/mL and 190000 Cells/mL and the Counts ([4]; 2xEC50, 8 h, experiment 1) was 71 and 76. For the same compound, the “AVG of cells/mL” value ([4]; 2xEC50, 8 h, experiment 2) was 206250 cells/mL, the Cells/mL ([4]; 2xEC50, 8 h, experiment 2) was 215000 Cells/mL and 197500 Cells/mL and the Counts ([4]; 2xEC50, 8 h, experiment 2) was 86 and 79. The “AVG of cells/mL” value ([4]; 2xEC50, 12 h, experiment 1) was 163750 cells/mL, the Cells/mL ([4]; 2xEC50, 12 h, experiment 1) was 195000 Cells/mL and 132500 Cells/mL and the Counts ([4]; 2xEC50, 12 h, experiment 1) was 78 and 53. For the same compound, the “AVG of cells/mL” value ([4]; 2xEC50, 12 h, experiment 2) was 143750 cells/mL, the Cells/mL ([4]; 2xEC50, 12 h, experiment 2) was 160000 Cells/mL and 127500 Cells/mL and the Counts ([4]; 2xEC50, 12 h, experiment 2) was 64 and 51. For the same compound, the “AVG of cells/mL” value ([4]; 2xEC50, 24 h, experiment 1) was 103750 cells/mL, the Cells/mL ([4]; 2xEC50, 24 h, experiment 1) was 125000 Cells/mL and 82500 Cells/mL and the Counts ([4]; 2xEC50, 24 h, experiment 1) was 50 and 33. For the same compound, the “AVG of cells/mL” value ([4]; 2xEC50, 24 h, experiment 2) was 15000 cells/mL, the Cells/mL ([4]; 2xEC50, 24 h, experiment 2) was 15000 Cells/mL and the Counts ([4]; 2xEC50, 24 h, experiment 2) was 6. The “AVG of cells/mL” value ([4]; 2xEC50, 36 h, experiment 1) was 103750 cells/mL, the Cells/mL ([4]; 2xEC50, 36 h, experiment 1) was 107500 Cells/mL and 100000 Cells/mL and the Counts ([4]; 2xEC50, 36 h, experiment 1) was 43 and 40. The “AVG of cells/mL” value ([4]; 2xEC50, 36 h, experiment 2) was 7500 cells/mL, the Cells/mL ([4]; 2xEC50, 48 h, experiment 1) was 0 Cells/mL and the Counts ([4]; 2xEC50, 48 h, experiment 1) was 0. The “AVG of cells/mL” value ([4]; 2xEC50, 48 h, experiment 2) was 0 cells/mL, the Cells/mL ([4]; 2xEC50, 48 h, experiment 2) was 0 Cells/mL and the Counts ([4]; 2xEC50, 48 h, experiment 2) was 0. For the same compound, the “effect on T. brucei bloodstream forms in culture (cidal/static)” value ([4]; 2× and 5× EC50) was “trypanocidal”, the “AVG of cells/mL” value ([4]; 5xEC50, 2 h, experiment 1) was 138750 cells/mL and the Cells/mL ([4]; 5xEC50, 2 h, experiment 1) was 132500 Cells/mL and 145000 Cells/mL. The Counts ([4]; 5xEC50, 2 h, experiment 1) was 53 and 58, the “AVG of cells/mL” value ([4]; 5xEC50, 2 h, experiment 2) was 140000 cells/mL and the Cells/mL ([4]; 5xEC50, 2 h, experiment 2) was 137500 Cells/mL and 142500 Cells/mL. For the same compound, the Counts ([4]; 5xEC50, 2 h, experiment 2) was 55 and 57, the “AVG of cells/mL” value ([4]; 5xEC50, 4 h, experiment 1) was 152500 cells/mL and the Cells/mL ([4]; 5xEC50, 4 h, experiment 1) was 150000 Cells/mL and 155000 Cells/mL. The Counts ([4]; 5xEC50, 4 h, experiment 1) was 62 and 60, the “AVG of cells/mL” value ([4]; 5xEC50, 4 h, experiment 2) was 153750 cells/mL and the Cells/mL ([4]; 5xEC50, 4 h, experiment 2) was 160000 Cells/mL and 147500 Cells/mL. For the same compound, the Counts ([4]; 5xEC50, 4 h, experiment 2) was 59 and 64, the “AVG of cells/mL” value ([4]; 5xEC50, 6 h, experiment 1) was 171250 cells/mL and the Cells/mL ([4]; 5xEC50, 6 h, experiment 1) was 167500 Cells/mL and 175000 Cells/mL. For the same compound, the Counts ([4]; 5xEC50, 6 h, experiment 1) was 67 and 70, the “AVG of cells/mL” value ([4]; 5xEC50, 6 h, experiment 2) was 140000 cells/mL and the Cells/mL ([4]; 5xEC50, 6 h, experiment 2) was 155000 Cells/mL and 125000 Cells/mL. The Counts ([4]; 5xEC50, 6 h, experiment 2) was 62 and 50, the “AVG of cells/mL” value ([4]; 5xEC50, 8 h, experiment 1) was 131250 cells/mL and the Cells/mL ([4]; 5xEC50, 8 h, experiment 1) was 130000 Cells/mL and 132500 Cells/mL. For the same compound, the Counts ([4]; 5xEC50, 8 h, experiment 1) was 52 and 53, the “AVG of cells/mL” value ([4]; 5xEC50, 8 h, experiment 2) was 146250 cells/mL and the Cells/mL ([4]; 5xEC50, 8 h, experiment 2) was 142500 Cells/mL and 150000 Cells/mL. The Counts ([4]; 5xEC50, 8 h, experiment 2) was 57 and 60, the “AVG of cells/mL” value ([4]; 5xEC50, 12 h, experiment 1) was 98750 cells/mL and the Cells/mL ([4]; 5xEC50, 12 h, experiment 1) was 107500 Cells/mL and 90000 Cells/mL. For the same compound, the Counts ([4]; 5xEC50, 12 h, experiment 1) was 43 and 36, the “AVG of cells/mL” value ([4]; 5xEC50, 12 h, experiment 2) was 95000 cells/mL and the Cells/mL ([4]; 5xEC50, 12 h, experiment 2) was 92500 Cells/mL and 97500 Cells/mL. For the same compound, the Counts ([4]; 5xEC50, 12 h, experiment 2) was 37 and 39, the “AVG of cells/mL” value ([4]; 5xEC50, 24 h, experiment 1) was 28750 cells/mL and the Cells/mL ([4]; 5xEC50, 24 h, experiment 1) was 27500 Cells/mL and 30000 Cells/mL. The Counts ([4]; 5xEC50, 24 h, experiment 1) was 11 and 12, the “AVG of cells/mL” value ([4]; 5xEC50, 24 h, experiment 2) was 7500 cells/mL and the Cells/mL ([4]; 5xEC50, 24 h, experiment 2) was 7500 Cells/mL. The Counts ([4]; 5xEC50, 24 h, experiment 2) was 3, the “AVG of cells/mL” value ([4]; 5xEC50, 36 h, experiment 1) was 18750 cells/mL and the Cells/mL ([4]; 5xEC50, 36 h, experiment 1) was 12500 Cells/mL and 25000 Cells/mL. For the same compound, the Counts ([4]; 5xEC50, 36 h, experiment 1) was 5 and 10, the “AVG of cells/mL” value ([4]; 5xEC50, 36 h, experiment 2) was 1250 cells/mL and the Cells/mL ([4]; 5xEC50, 48 h, experiment 1) was 0 Cells/mL. The Counts ([4]; 5xEC50, 48 h, experiment 1) was 0, the “AVG of cells/mL” value ([4]; 5xEC50, 48 h, experiment 2) was 0 cells/mL and the Cells/mL ([4]; 5xEC50, 48 h, experiment 2) was 0 Cells/mL. For the same compound, the Counts ([4]; 5xEC50, 48 h, experiment 2) was 0.
